Measurements as given in patent US7205150B2, “Transgenic plants over-expressing plant ADP-glucose pyrophosphatase” (Universidad Publica de Navarra, priority 2000, dated 2007).
Entries after “also recorded” stand apart in the source; their conditions may differ.

System: AGPPase (soluble and particulate isoforms)
Experiment: AGPPase enzymatic assay (two-step spectrophotometric determination of G1P produced from ADPG)
Assay type: biochemical, barley (Hordeum vulgare), tomato (Lycopersicon sculentum)
Details: for Km / affinity compared with ADP-glucose: Km of ADP-glucose relative to this substrate

[O]=[Mo](=[O])([O-])[O-] [molybdate]
Inhibition of AGPPase: strongly inhibited

Nc1ncnc2c1ncn2[C@@H]1O[C@H](COP(=O)(O)O)[C@@H](O)[C@H]1O [AMP]
Hydrolysis / recognition as substrate by AGPPase: do not hydrolyse | Inhibition of AGPPase: inhibited

OCCS [β-mercaptoethanol]
Effect of typical phosphodiesterase inhibitors (reducing and chelating agents) on AGPPase activity: not affected

arsenate
Inhibition of AGPPase: strongly inhibited

Nc1ncnc2c1ncn2[C@@H]1O[C@H](COP(=O)(O)OP(=O)(O)O[C@H]2O[C@H](CO)[C@@H](O)[C@H](O)[C@H]2O)[C@@H](O)[C@H]1O [ADPG, ADPglucose]
Hydrolysis / recognition as substrate by AGPPase: catalyse the hydrolysis; also recorded: preferred substrates | Km (read-out: Michaelis-Menten constant (Km)): 500 µM

Nc1ncnc2c1ncn2[C@@H]1O[C@H](COP(=O)(O)OP(=O)(O)OP(=O)(O)O)[C@@H](O)[C@H]1O [ATP]
Inhibition of AGPPase: inhibited

Nc1nc2c(ncn2[C@@H]2O[C@H](COP(=O)(O)OP(=O)(O)O[C@H]3O[C@H](CO)[C@@H](O)[C@H](O)[C@H]3O)[C@@H](O)[C@H]2O)c(=O)[nH]1 [GDP-glucose]
Hydrolysis / recognition as substrate by AGPPase: recognise

O=[N+]([O-])c1ccc(OP(=O)(O)Oc2ccc([N+](=O)[O-])cc2)cc1 [bis-PNPP, bis-paranitrophenylphosphate]
Hydrolysis / recognition as substrate by AGPPase: recognise

Nc1nc2c(ncn2[C@@H]2O[C@H](COP(=O)(O)OP(=O)(O)O[C@H]3O[C@H](CO)[C@@H](O)[C@H](O)[C@@H]3O)[C@@H](O)[C@H]2O)c(=O)[nH]1 [GDP-mannose]
Hydrolysis / recognition as substrate by AGPPase: recognises

O=C(O)[C@H](O)COP(=O)(O)O [3-phosphoglycerate]
Hydrolysis / recognition as substrate by AGPPase: do not hydrolyse | Inhibition of AGPPase: inhibited

Nc1ncnc2c1ncn2[C@@H]1O[C@H](COP(=O)(O)OP(=O)(O)O[C@H]2O[C@H](CO)[C@@H](O)[C@H](O)[C@@H]2O)[C@@H](O)[C@H]1O [ADP-mannose]
Hydrolysis / recognition as substrate by AGPPase: recognises

O=C[C@H](O)[C@@H](O)[C@H](O)[C@H](O)COP(=O)(O)O [G6P, glucose-6-phosphate]
Hydrolysis / recognition as substrate by AGPPase: do not hydrolyse

Nc1ncnc2c1ncn2[C@@H]1O[C@H](COP(=O)(O)OS(=O)(=O)O)[C@@H](O)[C@H]1O [APS, adenosine 5′phosphosulphate]
Hydrolysis / recognition as substrate by AGPPase: recognises; also recorded: catalyse the hydrolysis; also recorded: preferred substrates | Km / affinity compared with ADP-glucose: similar

Nc1ncnc2c1ncn2[C@@H]1O[C@H](COP(=O)(O)OP(=O)(O)O)[C@@H](O)[C@H]1O [ADP]
Inhibition of AGPPase: inhibited

Nc1ncnc2c1ncn2[C@@H]1O[C@H](COP(=O)(O)OP(=O)(O)OC[C@H]2OC(O)[C@H](O)[C@@H]2O)[C@@H](O)[C@H]1O (some centres unmarked) [ADP-ribose]
Km / affinity compared with ADP-glucose: four of five times lower

Nc1ncnc2c1ncn2[C@@H]1O[C@H](COP(=O)(O)OS(=O)(=O)O)[C@@H](OP(=O)(O)O)[C@H]1O [PAPS, 3′-phosphoadenosine 5′-phosphosulphate]
Hydrolysis / recognition as substrate by AGPPase: recognises; also recorded: catalyse the hydrolysis
